# Experimental data as given in patent publication US9090667B2, “Cyclic peptide from Nonomuraea sp., process for the production thereof, and pharmaceutical composition for the prevention or treatment of mycobacteria related disease comprising the same” (priority 2011, dated 2015).
# Numbered stars: 1 amine (or outer) side, 2 acyl side, 3 side chain; on linkers, the order of the positions; unused ones are H or OH. Bridge positions count the residues as written; N and C are the ends. Square brackets hold non-standard residues; d marks the D form. Peptide text beside a SMILES is read from it. * marks the point of attachment. ξ: configuration not given here. NMeTrp(4-OMe) = CN[CH](Cc1c[nH]c2cccc(OC)c12)C(=O)O; X1 = O=C(C(N[*:1])C(O)c1ccccc1)[*:2]; NMeI = CC[CH](C)[CH](NC)C(=O)O; ξNMe2Val = CC(C)C(C(=O)*)N(C)C; NMeT = CN[CH](C(=O)O)[CH](C)O; NMeL = CN[CH](CC(C)C)C(=O)O; NMeV = CN[CH](C(=O)O)C(C)C
# What was measured:
# [1] = tested on: M. tuberculosis strain resistant to rifampin (RMP)
# [2] = tested on: M. tuberculosis strain resistant to moxifloxacin (Mox)
# [3] = tested on: M. tuberculosis strain resistant to kanamycin (KM)
# [4] = tested on: M. tuberculosis strain resistant to isoniazid (INH)
# [5] = tested on: M. tuberculosis strain resistant to streptomycin (SM)
# [6] = tested on: M. tuberculosis strain resistant to capreomycin (CAP)
# [7] = tested on: M. tuberculosis strain resistant to cycloserine (CS)
structure (smiles),measurement,setting,value
CCC(C)C(C(=O)NC1C(=O)N(C)C(C(C)O)C(=O)NC(C(C)C)C(=O)N(C)C(CC(C)C)C(=O)NC(C(C)C)C(=O)N(C)C(C(C)C)C(=O)N(C)C(Cc2c[nH]c3cccc(OC)c23)C(=O)NC(C(C)C)C(=O)NC(C(O)c2ccccc2)C(=O)NC(C(C)C)C(=O)OC1C)N(C)C(=O)C(NC(=O)C(C(C)C)N(C)C)C(C)C (centres unmarked) [H-14] (ξNMe2Val-V[NMeI]T[NMeT]V[NMeL]V[NMeV][NMeTrp(4-OMe)]V[X1]V; ester 3-C; configuration not given here),MIC,[1],0.19 µM
same,MIC,[2],0.31 µM
same,MIC,[3],<0.12 µM
same,MIC,[4],<0.12 µM
same,MIC,[5],<0.12 µM
same,MIC,[6],0.29 µM
same,MIC,[7],<0.12 µM
CCC(C)C(C(=O)NC1C(=O)N(C)C(C(C)O)C(=O)NC(C(C)C)C(=O)N(C)C(CC(C)C)C(=O)NC(C(C)C)C(=O)N(C)C(C(C)C)C(=O)N(C)C(Cc2c[nH]c3cccc(OC)c23)C(=O)NC(C(C)C)C(=O)NC(Cc2ccccc2)C(=O)NC(C(C)C)C(=O)OC1C)N(C)C(=O)C(NC(=O)C(C(C)C)N(C)C)C(C)C (centres unmarked) [H-16] (ξNMe2Val-V[NMeI]T[NMeT]V[NMeL]V[NMeV][NMeTrp(4-OMe)]VFV; ester 3-C; configuration not given here),MIC,[1],0.18 µM
same,MIC,[2],0.3 µM
same,MIC,[3],<0.12 µM
same,MIC,[4],<0.12 µM
same,MIC,[5],<0.12 µM
same,MIC,[6],0.3 µM
same,MIC,[7],<0.12 µM
